These results are taken from patent US4663329A, “Thienopyridinone derivatives and anti-bacterial compositions containing them” (Sanofi, priority 1984, dated 1987).

Holding throughout (type): cell-based
In assay [1] the test system is Bacillus subtilis ATCC 6633. Nature of the assay: In vitro antibacterial activity, MIC, Bacillus subtilis ATCC 6633. On the procedure: (§1) Tests carried out in vitro in accordance with the experimental procedure described hereunder have provided evidence of the antibacterial activity in question.
(§2) For this purpose, the M.I.C. were determined i.e. the minimal inhibiting concentrations of the compound under study acting on the growth of the bacteria at 37° C.
(§3) The serial dilutions method was used utilizing a MUELLER HINTON gelose medium at pH=7.4 and a bacterial inoculum of 10^4 units forming colonies. This inoculum was applied to the gelose by means of a multiple sowing device.
(§4) A scale of concentrations ranging from 100 to 0.05 μg/ml of compound to be studied was used starting from mother solutions titrating 1000 μg/ml, all the subsequent dilutions being effected in distilled water.

Assay [2] concerns Acinetobacter calcoaceticus C 1733. Description: In vitro antibacterial activity, MIC, Acinetobacter calcoaceticus C 1733. On the procedure: as §1, §2, §3, §4
The test system of a further assay is Proteus morganii 1510. Description: In vitro antibacterial activity, MIC, Proteus morganii 1510. On the procedure:
as §1, §2, §3, §4

The test system of assay [3] is Staphylococcus aureus 53154 IP. Description: In vitro antibacterial activity, MIC, Staphylococcus aureus 53154 IP. The note with it: Staphylococcus aureus 53154 IP, 37° C., pH=7.4, inoculum 10^4. As for the experimental part:
as §1, §2, §3, §4

Assay [4] deals with Streptococcus faecalis 5855 IP. Nature of the assay: In vitro antibacterial activity, MIC, Streptococcus faecalis 5855 IP. The note with it: 37° C. As for the experimental part:
as §1, §2, §3, §4

Assay [5] has as its system Pseudomonas aeruginosa 8203. Description: In vitro antibacterial activity, MIC, Pseudomonas aeruginosa 8203. The note with it: 37° C. As for the experimental part: as §1, §2, §3, §4
For assay [6], the system named is Salmonella typhi ATCC 6539. Description: In vitro antibacterial activity, MIC, Salmonella typhi ATCC 6539. As for the experimental part:
as §1, §2, §3, §4

Assay [7] concerns Escherichia coli 54127 IP. Description: In vitro antibacterial activity, MIC, Escherichia coli 54127 IP. As for the experimental part: as §1, §2, §3, §4
Assay [8] deals with Klebsiella pneumoniae ATCC 10031. Description: In vitro antibacterial activity, MIC, Klebsiella pneumoniae ATCC 10031. As for the experimental part: as §1, §2, §3, §4
For assay [9], the system named is Escherichia coli SOL RL 90. Nature of the assay: In vitro antibacterial activity, MIC, Escherichia coli SOL RL 90. As for the experimental part:
as §1, §2, §3, §4

The subject of assay [10] is Enterobacter hafniae RO 46. Nature of the assay: In vitro antibacterial activity, MIC, Enterobacter hafniae RO 46. As for the experimental part:
as §1, §2, §3, §4

In assay [11] the test system is Citrobacter freundii GN 346. Nature of the assay: In vitro antibacterial activity, MIC, Citrobacter freundii GN 346. On the procedure: as §1, §2, §3, §4
In assay [12] the test system is Salmonella typhimurium A 222 IP. Description: In vitro antibacterial activity, MIC, Salmonella typhimurium A 222 IP. As for the experimental part:
as §1, §2, §3, §4

In assay [13] the test system is Enterobacter cloacae P 99. Description: In vitro antibacterial activity, MIC, Enterobacter cloacae P 99. As for the experimental part: as §1, §2, §3, §4
Assay [14] relates to Serratia liquefaciens 376. Nature of the assay: In vitro antibacterial activity, MIC, Serratia liquefaciens 376. The note with it: 37° C. As for the experimental part: as §1, §2, §3, §4
Assay [15] relates to Bordetella bronchiseptica ATCC 4617. Description: In vitro antibacterial activity, MIC, Bordetella bronchiseptica ATCC 4617. As for the experimental part:
as §1, §2, §3, §4

Assay [16] relates to Providencia stuartii 5158. Description: In vitro antibacterial activity, MIC, Providencia stuartii 5158. As for the experimental part: as §1, §2, §3, §4
The test system of assay [17] is Proteus vulgaris RL 99 bis. Description: In vitro antibacterial activity, MIC, Proteus vulgaris RL 99 bis. As for the experimental part:
as §1, §2, §3, §4

For assay [18], the system named is Klebsiella pneumoniae R 30. Nature of the assay: In vitro antibacterial activity, MIC, Klebsiella pneumoniae R 30. On the procedure:
as §1, §2, §3, §4

In assay [19] the test system is Proteus mirabilis ATCC 21100. Nature of the assay: In vitro antibacterial activity, MIC, Proteus mirabilis ATCC 21100. As for the experimental part:
as §1, §2, §3, §4

Another assay relates to Shigella sonnei R 018. Nature of the assay: In vitro antibacterial activity, MIC, Shigella sonnei R 018. The note with it: R018, 37° C., pH=7.4, inoculum 10^4. On the procedure:
as §1, §2, §3, §4

Setting [20] is: C1733, 37° C., pH=7.4, inoculum 10^4, read-out: MIC.
[21] abbreviates: Enterococcus faecalis, pH=7.4, inoculum 10^4, read-out: MIC.
Where [22] appears, read: pH=7.4, inoculum 10^4, read-out: MIC.
Where [23] appears, read: Klebsiella pneumoniae, ATCC10031.
Where [24] appears, read: Salmonella enterica, TYPHIMURIUM
Setting [25] is: ATCC4617, 37° C., pH=7.4, inoculum 10^4, read-out: MIC.

≈ marks a conversion by molar mass, not a printed value. Like-named read-outs stand apart in the source and are kept apart here.

The MIC is the smallest concentration in the dilution series that meets the test's criterion for growth inhibition.

For the compound `CCn1cc(C(=O)O)c(=O)c2cc(C=NOC)sc21` (single isomer, unassigned) [Compound H, 4,7-Dihydro-7-ethyl-2-methoxyiminomethyl-4-oxo-thieno[2,3-b]pyridine-5-carboxylic acid, anti-isomer], the MIC in assay [1] (Bacillus subtilis ATCC 6633, 37° C., pH=7.4, inoculum 10^4) was 0.8 µg/mL (≈ 2.85 µM); in assay [2] (37° C., pH=7.4, inoculum 10^4) it was above 25 µg/mL; against Proteus morganii 1510 (Proteus morganii 1510, 37° C., pH=7.4, inoculum 10^4), 0.8 µg/mL (≈ 2.85 µM); in [3], above 50 µg/mL; in [4] (pH=7.4, inoculum 10^4), above 100 µg/mL; in [5] (pH=7.4, inoculum 10^4), above 25 µg/mL. Also, the MIC was 25 µg/mL (≈ 89.2 µM) in assay [6] (Salmonella typhi ATCC 6539, 37° C., pH=7.4, inoculum 10^4); 1.56 µg/mL (≈ 5.57 µM) in assay [7] (Escherichia coli 54127 IP, 37° C., pH=7.4, inoculum 10^4); 0.4 µg/mL (≈ 1.43 µM) in assay [8] (Klebsiella pneumoniae ATCC 10031, 37° C., pH=7.4, inoculum 10^4); 6.25 µg/mL (≈ 22.3 µM) in assay [9] (Escherichia coli SOL RL 90, 37° C., pH=7.4, inoculum 10^4); 3.12 µg/mL (≈ 11.1 µM) in [10] (Enterobacter hafniae RO 46, 37° C., pH=7.4, inoculum 10^4); 6.25 µg/mL (≈ 22.3 µM) in [11] (Citrobacter freundii GN 346, 37° C., pH=7.4, inoculum 10^4). Moreover, the minimal inhibitory concentration (MIC) in assay [12] (Salmonella typhimurium A 222 IP, 37° C., pH=7.4, inoculum 10^4) was 12.5 µg/mL (≈ 44.6 µM); in [13] (Enterobacter cloacae P 99, 37° C., pH=7.4, inoculum 10^4) it was 3.12 µg/mL (≈ 11.1 µM); in [14] (pH=7.4, inoculum 10^4), above 25 µg/mL; in assay [15] (37° C., pH=7.4, inoculum 10^4), above 25 µg/mL; in [16] (Providencia stuartii 5158, 37° C., pH=7.4, inoculum 10^4) it was 6.25 µg/mL (≈ 22.3 µM); in assay [17] (Proteus vulgaris RL 99 bis, 37° C., pH=7.4, inoculum 10^4), 1.56 µg/mL (≈ 5.57 µM). Further, the MIC in assay [18] (Klebsiella pneumoniae R 30, 37° C., pH=7.4, inoculum 10^4) came to 6.25 µg/mL (≈ 22.3 µM); in [19] (Proteus mirabilis ATCC 21100, 37° C., pH=7.4, inoculum 10^4), 0.8 µg/mL (≈ 2.85 µM).
`CCn1cc(C(=O)O)c(=O)c2cc(C=NO)sc21` [Compound A, 4,7-Dihydro-7-ethyl-2-hydroxyiminomethyl-4-oxo-thieno[2,3-b]pyridine-5-carboxylic acid]: the MIC was 1.56 µg/mL (≈ 5.86 µM) with Shigella sonnei R 018; above 100 µg/mL in assay [2] (setting [20]); 1.56 µg/mL (≈ 5.86 µM) against Proteus morganii 1510 (Morganella morganii, 1510); 25 µg/mL (≈ 93.9 µM) in [3] (read-out: MIC); above 100 µg/mL in assay [4] (setting [21]); 50 µg/mL (≈ 188 µM) in assay [5] (setting [22]). Also, the MIC is 6.25 µg/mL (≈ 23.5 µM) in assay [6] (Salmonella enterica); 3.12 µg/mL (≈ 11.7 µM) in [7] (Escherichia coli, 54127IP); 1.56 µg/mL (≈ 5.86 µM) in [8] (setting [23]); 6.25 µg/mL (≈ 23.5 µM) in assay [9] (Escherichia coli, SOLRL90); 1.56 µg/mL (≈ 5.86 µM) in assay [10] (Hafnia alvei, RO46); 6.25 µg/mL (≈ 23.5 µM) in assay [11] (Citrobacter freundii, GN346). The MIC is 6.25 µg/mL (≈ 23.5 µM) in assay [12] (setting [24]); 6.25 µg/mL (≈ 23.5 µM) in [13] (Enterobacter cloacae, P99); 100 µg/mL (≈ 376 µM) in [14] (setting [22]); above 100 µg/mL in assay [15] (setting [25]); 6.25 µg/mL (≈ 23.5 µM) in assay [16] (Providencia stuartii, 5158); 1.56 µg/mL (≈ 5.86 µM) in assay [17] (Proteus vulgaris, RL99BIS). Also, the MIC in assay [18] (Klebsiella pneumoniae, R30) was 6.25 µg/mL (≈ 23.5 µM); in assay [19] (Proteus mirabilis, ATCC21100), 1.56 µg/mL (≈ 5.86 µM).
For the compound `CCn1cc(C(=O)O)c(=O)c2cc(/C=N/O)sc21` [Compound B, 4,7-Dihydro-7-ethyl-2-hydroxyiminomethyl-4-oxo-thieno[2,3-b]pyridine-5-carboxylic acid, anti-isomer], the MIC in [1] (Bacillus subtilis, ATCC6633) is 6.25 µg/mL (≈ 23.5 µM); in the assay on Shigella sonnei R 018, 0.8 µg/mL (≈ 3 µM); in assay [2] (setting [20]), above 100 µg/mL; in the assay with Proteus morganii 1510 (Morganella morganii, Proteus morganii 1510, 37° C., pH=7.4, inoculum 10^4, read-out: MIC), 0.4 µg/mL (≈ 1.5 µM); in assay [3] (read-out: MIC), 12.5 µg/mL (≈ 46.9 µM); in assay [4] (setting [21]) it was above 100 µg/mL. In addition, the MIC in assay [5] (setting [22]) is 100 µg/mL (≈ 376 µM); in [6] (Salmonella enterica) it was 6.25 µg/mL (≈ 23.5 µM); in [7] (Escherichia coli, 54127IP), 3.12 µg/mL (≈ 11.7 µM); in assay [8] (setting [23]), 1.56 µg/mL (≈ 5.86 µM); in assay [9] (Escherichia coli, SOLRL90), 3.12 µg/mL (≈ 11.7 µM); in [10] (Hafnia alvei, RO46), 3.12 µg/mL (≈ 11.7 µM). The MIC in assay [11] (Citrobacter freundii, GN346) is 3.12 µg/mL (≈ 11.7 µM); in [12] (setting [24]), 3.12 µg/mL (≈ 11.7 µM); in assay [13] (Enterobacter cloacae, P99) it was 6.25 µg/mL (≈ 23.5 µM); in [14] (setting [22]), 50 µg/mL (≈ 188 µM); in assay [15] (setting [25]), above 100 µg/mL; in assay [16] (Providencia stuartii, 5158) it was 6.25 µg/mL (≈ 23.5 µM). Further, the MIC in assay [17] (RL99BIS, Proteus vulgaris RL 99 bis, 37° C., pH=7.4, inoculum 10^4, read-out: MIC) was found to be 0.8 µg/mL (≈ 3 µM); in [18] (Klebsiella pneumoniae, R30), 6.25 µg/mL (≈ 23.5 µM); in [19] (Proteus mirabilis, ATCC21100) it was 1.56 µg/mL (≈ 5.86 µM).
